Source: PubChem BioAssay (NCI)
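The compound was tested at five concentrations on cells cultured in 96-well plates, with a 48-hour exposure period. TGI: total growth inhibition.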

Experiments:
Test in all cases: inhibition of tumour cell growth, NCI panel, 48 h
SF-295 CNS = test system: SF-295 CNS
M14 melanoma = test system: M14 melanoma
EKVX NSCLC = test system: EKVX NSCLC
LXFL 529 NSCLC = test system: LXFL 529 NSCLC
NCI-H23 lung = test system: NCI-H23 lung
SW-620 colon = test system: SW-620 colon
COLO 205 colon = test system: COLO 205 colon
SF-539 CNS = test system: SF-539 CNS
ACHN renal = test system: ACHN renal
M19-MEL melanoma = test system: M19-MEL melanoma
CAKI-1 renal = test system: CAKI-1 renal
NCI-H460 lung = test system: NCI-H460 lung
HOP-92 NSCLC = test system: HOP-92 NSCLC
DMS 273 small cell lung = test system: DMS 273 small cell lung
UACC-257 melanoma = test system: UACC-257 melanoma
UO-31 renal = test system: UO-31 renal
KM12 colon = test system: KM12 colon
K-562 leukemia = test system: K-562 leukemia
HT29 colon = test system: HT29 colon
TK-10 renal = test system: TK-10 renal
UACC-62 melanoma = test system: UACC-62 melanoma
HL-60(TB) leukemia = test system: HL-60(TB) leukemia
SF-268 CNS = test system: SF-268 CNS
KM20L2 colon = test system: KM20L2 colon
SN12C renal = test system: SN12C renal
MALME-3M melanoma = test system: MALME-3M melanoma
OVCAR-5 ovarian = test system: OVCAR-5 ovarian
SK-MEL-5 melanoma = test system: SK-MEL-5 melanoma
DLD-1 colon = test system: DLD-1 colon
OVCAR-4 ovarian = test system: OVCAR-4 ovarian
HCT-15 colon = test system: HCT-15 colon
SK-OV-3 ovarian = test system: SK-OV-3 ovarian
SR leukemia = test system: SR leukemia
CCRF-CEM leukemia = test system: CCRF-CEM leukemia
IGROV1 ovarian = test system: IGROV1 ovarian
MOLT-4 leukemia = test system: MOLT-4 leukemia
DMS 114 small cell lung = test system: DMS 114 small cell lung
HCT-116 colon = test system: HCT-116 colon
NCI-H226 lung = test system: NCI-H226 lung
XF 498 CNS = test system: XF 498 CNS
OVCAR-3 ovarian = test system: OVCAR-3 ovarian
HOP-62 NSCLC = test system: HOP-62 NSCLC
SK-MEL-28 melanoma = test system: SK-MEL-28 melanoma
RPMI-8226 leukemia = test system: RPMI-8226 leukemia
SNB-19 CNS = test system: SNB-19 CNS
SNB-75 CNS = test system: SNB-75 CNS
A498 renal = test system: A498 renal
A549 NSCLC = test system: A549 NSCLC
OVCAR-8 ovarian = test system: OVCAR-8 ovarian
U251 CNS = test system: U251 CNS
NCI-H522 lung = test system: NCI-H522 lung
SK-MEL-2 melanoma = test system: SK-MEL-2 melanoma
HOP-18 NSCLC = test system: HOP-18 NSCLC
SNB-78 CNS = test system: SNB-78 CNS
786-0 renal = test system: 786-0 renal
LOX IMVI melanoma = test system: LOX IMVI melanoma
HCC-2998 colon = test system: HCC-2998 colon

Cc1ccc(N=NC(C2=NC(=O)CS2)c2nc3ccccc3[nH]2)cc1 (stereo not given)
TGI (SF-295 CNS): > 100 µM
TGI (M14 melanoma): > 100 µM
TGI (EKVX NSCLC): > 100 µM
TGI (LXFL 529 NSCLC): > 100 µM
TGI (NCI-H23 lung): > 100 µM
TGI (SW-620 colon): > 100 µM
TGI (COLO 205 colon): > 100 µM
TGI (SF-539 CNS): > 100 µM
TGI (ACHN renal): > 100 µM
TGI (M19-MEL melanoma): > 100 µM
TGI (CAKI-1 renal): > 100 µM
TGI (NCI-H460 lung): > 100 µM
TGI (HOP-92 NSCLC): > 100 µM
TGI (DMS 273 small cell lung): > 100 µM
TGI (UACC-257 melanoma): > 100 µM
TGI (UO-31 renal): > 100 µM
TGI (KM12 colon): > 100 µM
TGI (K-562 leukemia): > 100 µM
TGI (HT29 colon): > 100 µM
TGI (TK-10 renal): > 100 µM
TGI (UACC-62 melanoma): > 100 µM
TGI (HL-60(TB) leukemia): > 100 µM
TGI (SF-268 CNS): > 100 µM
TGI (KM20L2 colon): > 100 µM
TGI (SN12C renal): > 100 µM
TGI (MALME-3M melanoma): > 100 µM
TGI (OVCAR-5 ovarian): > 100 µM
TGI (SK-MEL-5 melanoma): > 100 µM
TGI (DLD-1 colon): > 100 µM
TGI (OVCAR-4 ovarian): > 100 µM
TGI (HCT-15 colon): > 100 µM
TGI (SK-OV-3 ovarian): > 100 µM
TGI (SR leukemia): > 100 µM
TGI (CCRF-CEM leukemia): > 100 µM
TGI (IGROV1 ovarian): > 100 µM
TGI (MOLT-4 leukemia): 76.7 µM
TGI (DMS 114 small cell lung): > 100 µM
TGI (HCT-116 colon): > 100 µM
TGI (NCI-H226 lung): > 100 µM
TGI (XF 498 CNS): > 100 µM
TGI (OVCAR-3 ovarian): > 100 µM
TGI (HOP-62 NSCLC): 69.3 µM
TGI (SK-MEL-28 melanoma): > 100 µM
TGI (RPMI-8226 leukemia): > 100 µM
TGI (SNB-19 CNS): > 100 µM
TGI (SNB-75 CNS): > 100 µM
TGI (A498 renal): > 100 µM
TGI (A549 NSCLC): > 100 µM
TGI (OVCAR-8 ovarian): > 100 µM
TGI (U251 CNS): > 100 µM
TGI (NCI-H522 lung): > 100 µM

COC(CC1(OC)OC(=O)C=C1N)OC (stereo not given)
TGI (SF-295 CNS): > 100 µM
TGI (M14 melanoma): > 100 µM
TGI (EKVX NSCLC): > 100 µM
TGI (LXFL 529 NSCLC): > 100 µM
TGI (NCI-H23 lung): > 100 µM
TGI (SW-620 colon): > 100 µM
TGI (COLO 205 colon): > 100 µM
TGI (SF-539 CNS): > 100 µM
TGI (ACHN renal): > 100 µM
TGI (M19-MEL melanoma): > 100 µM
TGI (NCI-H460 lung): > 100 µM
TGI (HOP-92 NSCLC): > 100 µM
TGI (DMS 273 small cell lung): > 100 µM
TGI (UACC-257 melanoma): > 100 µM
TGI (UO-31 renal): > 100 µM
TGI (KM12 colon): > 100 µM
TGI (K-562 leukemia): > 100 µM
TGI (HT29 colon): > 100 µM
TGI (TK-10 renal): > 100 µM
TGI (UACC-62 melanoma): > 100 µM
TGI (SK-MEL-2 melanoma): > 100 µM
TGI (HL-60(TB) leukemia): > 100 µM
TGI (SF-268 CNS): > 100 µM
TGI (HOP-18 NSCLC): > 100 µM
TGI (SN12C renal): > 100 µM
TGI (SNB-78 CNS): > 100 µM
TGI (786-0 renal): > 100 µM
TGI (MALME-3M melanoma): > 100 µM
TGI (OVCAR-5 ovarian): > 100 µM
TGI (SK-MEL-5 melanoma): > 100 µM
TGI (DLD-1 colon): > 100 µM
TGI (OVCAR-4 ovarian): > 100 µM
TGI (HCT-15 colon): > 100 µM
TGI (SK-OV-3 ovarian): > 100 µM
TGI (SR leukemia): > 100 µM
TGI (CCRF-CEM leukemia): > 100 µM
TGI (IGROV1 ovarian): > 100 µM
TGI (MOLT-4 leukemia): > 100 µM
TGI (DMS 114 small cell lung): > 100 µM
TGI (HCT-116 colon): > 100 µM
TGI (NCI-H226 lung): > 100 µM
TGI (OVCAR-3 ovarian): > 100 µM
TGI (HOP-62 NSCLC): > 100 µM
TGI (SK-MEL-28 melanoma): > 100 µM
TGI (LOX IMVI melanoma): > 100 µM
TGI (RPMI-8226 leukemia): > 100 µM
TGI (SNB-19 CNS): > 100 µM
TGI (SNB-75 CNS): > 100 µM
TGI (A498 renal): > 100 µM
TGI (A549 NSCLC): > 100 µM
TGI (OVCAR-8 ovarian): > 100 µM
TGI (U251 CNS): > 100 µM
TGI (HCC-2998 colon): > 100 µM
TGI (NCI-H522 lung): > 100 µM
